From patent publication US20120258172A1, “Compositions For The Treatment of Central Nervous System Disorders Including Depression Employing Novel Drug Combination Therapy To Reduce Suicidality In Patients” (priority 2010, published 2012) come the findings set out here.

For data set [1], the system named is severely depressed patients with suicidal thoughts and behaviors. As to the kind of experiment: Phase II trial: Beck Hopelessness Scale (BHS). It counts as in vivo, human. As to conditions: n = 40 per arm. From the text:
(§1) Ninety-three patients were screened and 80 subjects were identified who were between the ages of 18 to 75, inclusive, and met the criteria for major depressive disorder (MDD), dysthymia, depression not otherwise specified and/or borderline personality disorder as defined by Diagnostic and Statistical Manual-IV-TR and confirmed by the Mini International Neuropsychological Interview (MINI).
(§2) Selected subjects scored >15 on the Montgomery-Åsberg Depression Rating Scale and >8 on the Sheehan Suicidality Tracking Scale (S-STS) at Screening and Baseline Visits. […]
(§3) Efficacy was measured by taking S-STS (Sheehan-Suicidality Tracking Scale (Sheehan, 2009)) scores at Baseline and at each visit for 4 weeks of treatment or until end-of-treatment and measuring the change from baseline in the S-STS total score at week 4. […]
(§4) All significance tests were two-sided. Statistical significance was assessed at the p≦0.05 level for main effects, and significance at the p≦0.10 level was considered a trend indicating efficacy. […]

The test system is the same in data set [2]. As to the kind of experiment: Phase II trial: Clinical Global Impression (CGI) severity. Type of data set: in vivo, human. As to conditions: n = 40 per arm.
Description: as §1, §2, §3, §4

The test system is the same in data set [3]. The conditions noted are these: of 40 patients in the arm.
Description: (§5) All subjects received 20 mg citalopram and were randomized to either 300 mg lithium carbonate/day or placebo for 4 weeks of Double-Blind Treatment. Patients were instructed to take one capsule from the bottle and two tablets from the blister card one time daily, in the morning, orally with food. If the patient was unable to tolerate morning dosing, patient may be switched to evening dosing as long as there was 24 hours minimum between doses.
Subjects were considered to have completed the study if they completed all of the visits.
For data set [4] the test system is unchanged. As to the kind of experiment: Phase II trial: adverse events. Type of data set: in vivo, human. On the procedure: Eligible subjects were evaluated for safety parameters prior to and throughout the screening through a variety of methods including an ECG, physical exam, vital sign taking and clinical laboratory testing. A standard 12-lead ECG was performed at Screening (Visit 1) and at Week 4 (Visit 6 or Early Termination Visit). Physical examinations included determination of general appearance, mental status, skin, neck (including thyroid), eyes, ears, nose, throat, heart, lungs, abdomen, lymph nodes, musculoskeletal system, and nervous system. Vital signs included respiratory rate, radial pulse and systolic and diastolic blood pressures. Vital signs were collected in the seated position. Clinical Laboratory Testing Parameters included a Complete Metabolic Panel (Na, K, Cl, CO2, Glu, BUN, Cr, Ca, TP, Alb, TBili, AP, AST, ALT), Hematology CBC (Hgb, Hct, RBC, WBC, Pit, Diff) and TSH (w/reflex T-4). Serum HCG is performed for all females, and Urine Analysis is completed for all subjects.
Efficacy was measured by taking S-STS (Sheehan-Suicidality Tracking Scale (Sheehan, 2009)) scores at Baseline and at each visit for 4 weeks of treatment or until end-of-treatment and measuring the change from baseline in the S-STS total score at week 4. Secondary efficacy variables were the BHS (Beck Hopelessness Scale (Beck, Steer, 1988)), BSS (Beck Scale for Suicide Ideation (Beck and Steer, 1991)), C-SSRS (Columbia Suicide Severity Rating Scale (Posner et al., 2009) and CGI (Clinical Global Impression Study (Guy, 1976)) changes at week 4. Safety measures were collected and evaluated throughout the trial. These included Adverse Events (AEs), laboratory parameters, physical examinations, ECGs and vital signs and weight measurements. Adverse events were any untoward medical event occurring in a subject administered study drug, irrespective of whether it has a causal relationship to the study drug. An adverse event could therefore be any unfavorable or unintended sign (including abnormal laboratory findings, for example), symptom, or disorder temporarily associated with study drug, whether or not considered related to the study drug. Adverse Events among the 80 participants were as follows: […]

For data set [5] the test system is unchanged. As to the kind of experiment: Phase II trial: Beck Scale for Suicide Ideation (BSS). As to conditions: n = 40 per arm. It counts as in vivo, human.
Description: as §1, §2, §3, §4

Data set [6] has the same test system. As to the kind of experiment: Phase II trial: Sheehan Suicidality Tracking Scale (S-STS). Type of data set: in vivo, human.
Description: as §1
Selected subjects scored >15 on the Montgomery-Åsberg Depression Rating Scale and >8 on the Sheehan Suicidality Tracking Scale (S-STS) at Screening and Baseline Visits. Subjects were excluded if they had current, unstable and significant medical conditions (a history of unstable Thyroid disorders, a history of seizure disorders, tumors or other central nervous system (CNS) condition that predisposes the patient to risk of seizure), pregnant or lactating, had any abnormal clinical laboratory test results, or ECG results which were judged by the investigator as clinically significant, a history of intolerance or hypersensitivity to citalopram, other SSRIs, or lithium, a history or current diagnosis of bipolar mood disorder, psychosis, schizophrenia or dementia, were currently involved in another clinical trial or had participated in another clinical trial less than thirty days prior, or had current or prior treatment with citalopram or escitalopram. Psychotropic medications (anti-psychotics, anti-depressants, and mood stabilizers) were excluded during the treatment phase and required a twenty-four hour washout period prior to the first dose of study medication. Diuretics, analgesics, benzodiazepines and opiates were used with caution.
Efficacy was measured by taking S-STS (Sheehan-Suicidality Tracking Scale (Sheehan, 2009)) scores at Baseline and at each visit for 4 weeks of treatment or until end-of-treatment and measuring the change from baseline in the S-STS total score at week 4. Secondary efficacy variables were the BHS (Beck Hopelessness Scale (Beck, Steer, 1988)), BSS (Beck Scale for Suicide Ideation (Beck and Steer, 1991)), C-SSRS (Columbia Suicide Severity Rating Scale (Posner et al., 2009) and CGI (Clinical Global Impression Study (Guy, 1976)) changes at week 4. Safety measures were collected and evaluated throughout the trial. These included Adverse Events (AEs), laboratory parameters, physical examinations, ECGs and vital signs and weight measurements. Adverse events were any untoward medical event occurring in a subject administered study drug, irrespective of whether it has a causal relationship to the study drug. An adverse event could therefore be any unfavorable or unintended sign (including abnormal laboratory findings, for example), symptom, or disorder temporarily associated with study drug, whether or not considered related to the study drug. Adverse Events among the 80 participants were as follows:
All significance tests were two-sided. Statistical significance was assessed at the p≦0.05 level for main effects, and significance at the p≦0.10 level was considered a trend indicating efficacy. Missing values were handled using the last observation carried forward (LOCF) technique. The primary analysis population for inference was the intention-to-treat (ITT) population.

Data set [7] has the same test system. As to the kind of experiment: Phase II trial: Montgomery-Åsberg Depression Rating Scale (MADRS). It counts as in vivo, human. As to conditions: all patients assigned, n = 40.
Description: as §1, §2, §3, §4

Data set [8] is described as follows: Phase II trial: serum lithium level. As to conditions: subgroup n = 11 of 40 on 300 mg lithium carbonate/day + 20 mg citalopram (3 at 0.5, 3 at 0.6, 5 at 0.7); week 4. It counts as in vivo, human.
Description: as §5

Molecules are shown by their SMILES. A value given as a limit tells only on which side of the number the result lay.

Turning to `CN(C)CCCC1(c2ccc(F)cc2)OCc2cc(C#N)ccc21` (stereo not shown) [Citalopram + Placebo, citalopram], in data set [1] (Baseline), the “BHS, Mean (SD)” value was 16.3 (3.4). Besides, the “BHS, Mean (SD)” value in data set [1] (End of Study (week 4, LOCF)) was 11.8 (5.4). Also, the “CGI (Severity), Mean (SD)” value in data set [2] (Baseline) was 4.9 (0.8). Also, in data set [2] (End of Study (week 4, LOCF)), the “CGI (Severity), Mean (SD)” value is recorded as 3.3 (1.8). In addition, in data set [3], the “patients who discontinued participation because of Adverse Event” value is on record as 1. For the same molecule, the “Adverse Events per Patient” value in data set [4] (all patients assigned, n = 40) is reported as 1.0. In data set [4] (n = 40 per arm, 4 weeks), the “Anxiousness, % of patients” value was determined as 3%; the “Anxiousness, number of patients” value came out at 1; the “Common Cold, % of patients” value was 5%; the “Common Cold, number of patients” value amounted to 2. In data set [4] (n = 40 per arm, 4 weeks), the “Decreased Appetite, % of patients” value was 5%; the “Decreased Appetite, number of patients” value was found to be 2; the “Dizziness, % of patients” value is reported as 5%; the “Dizziness, number of patients” value is listed as 2. Moreover, in data set [4] (n = 40 per arm, 4 weeks), the “Headaches, % of patients” value is on record as 1 (1%); the “Headaches, number of patients” value is recorded as 1 (1%); the “Nausea, % of patients” value came to 3%; the “Nausea, number of patients” value amounted to 5. Moreover, in data set [4] (n = 40 per arm, 4 weeks), the “Restlessness, % of patients” value is on record as 5%; the “Restlessness, number of patients” value amounted to 2; the “Somnolence, % of patients” value is 18%; the “Somnolence, number of patients” value amounted to 7. Moreover, in data set [4] (n = 40 per arm, 4 weeks), the “Total Events (most frequent and serious adverse events)” value worked out at 23; the “Vomiting, % of patients” value turned out to be 3%; the “Vomiting, number of patients” value is given as 1. Also, in data set [5] (Baseline), the “BSS, Mean (SD)” value is given as 16.2 (6.7). Besides, in data set [5] (End of Study (week 4, LOCF)), the “BSS, Mean (SD)” value is on record as 9.1 (8.2). Further, in data set [6] (all patients assigned, n = 40), the “# With Full S-STS Symptom Remission” value was determined as 6, the “# With No change in S-STS Symptoms” value amounted to 12, the “# with Worsening of S-STS Symptoms” value stood at 2 and the “% With Full S-STS Symptom Remission” value is reported as “(15%)”. Further, in data set [6] (all patients assigned, n = 40), the “% With No change in S-STS Symptoms” value is reported as “(30%)”, the “% with Worsening of S-STS Symptoms” value is given as “(5%)” and the “Mean Total S-STS Change Score” value is given as 4.8. The “change in the mean total S-STS” value in data set [6] (among the 64 completers) was determined as 5.4±5.3. Also, in data set [7], the “Mean Total MADRS Change Score” value is given as 9.8.

With `[Li]` [lithium], in data set [8], the serum lithium level was ≥ 0.5 mEq/L.
